From article PMC10176470, “Engaging a Non-catalytic Cysteine Residue Drives Potent and Selective Inhibition of Caspase-6” (Journal of the American Chemical Society, 2023)

Tests used:
Experiment in all cases: SILAC proteomics / in-gel fluorescence, competition of probe 13-t labeling by 3a
[1] = biological target: proteins of HEK293T cells transiently overexpressing caspase-6 (Homo sapiens, UniProt P06744)
Method: (§1) Cells were lysed, and heavy and light SILAC lysates were combined in a 1:1 ratio and subjected to CuAAC reaction with azido-biotin to biotinylate probe-labeled proteins for subsequent capture on streptavidin-coated beads. Bead-bound proteins were split for analysis by in-gel fluorescence and tryptic digestion on-bead for LC–MS/MS analysis.
(§2) SILAC labeling and alkyne probe treatment: HEK293T cells were seeded into 8x 15 cm plates at
(§3) a density of 500,000 cells/plate. 4 of these plates were grown in light SILAC DMEM and 4 were
(§4) grown in heavy SILAC DMEM all containing 10% FBS and 4.5g/L glucose. The next day, all 8
(§5) plates were transfected with a pCMV6-Entry plasmid coding for caspase-6-myc-DDK lacking the
(§6) prodomain. After 24 hours, media was replaced with fresh SILAC growth media containing 4.5 g/L
(§7) glucose and 3% FBS. 24 hours later the plates were treated with probe and inhibitor for 1 hours as
(§8) follows: 2 of the light plates were treated with vehicle, 2 light plates and 2 heavy plates treated with
(§9) for 60 minutes. After treatment, media was removed, and cells were washed with 15 mL PBS for 5
(§10) minutes. Cells were then harvested by scraping in cold PBS and lysed in the presence of Roche
(§11) complete protease inhibitors. Lysates were clarified by centrifugation at 10,000xg for 10 minutes and
(§12) the protein in the supernatant was quantified by BCA assay.
(§13) Proteomics assay: 1 mg of each lysate was diluted to 2mg/ml in PBS with Roche complete protease
(§14) inhibitors. To this was added 0.1 mM biotin-azide, 1 mM tris(2-carboxyethyl)phosphine (TCEP), 0.1
(§15) mM Tris((1-benzyl-4-triazolyl)methyl)amine (TBTA) ligand, and 1 mM CuSO4 in a final volume of
(§16) 0.5 mL. The reaction was incubated at room temperature for 1 hour and was vortexed every 15
(§17) minutes. After 1 hour, proteins are precipitated and are pelleted by centrifuging at 16,000xg for 4
(§18) min at 4 °C. The supernatants were discarded, and the pellets were solubilized with 0.5 mL cold
(§19) The cold methanol wash was then repeated, and the washed
(§20) pellets were resuspended in 1 mL of 1.2% SDS and sonicated until clear. The samples were heat
(§21) denatured at 80-90 °C for 5 minutes and any insoluble particles were removed by centrifugation at
(§22) 6,500xg for 5 minutes. The 1 mL supernatant was transferred to a 15 mL conical tubes containing 5
(§23) mL of PBS and 150 µL of washed neutravidin beads were added. The samples were incubated for 2
(§24) hours at 4 °C while rotating, at which point the samples were warmed to resolubilize any precipitated
(§25) SDS. The beads were pelleted by centrifugation at 1400xg for 3 min and washed for 10 minutes with
(§26) the following solutions: 2x 1% NP-40, 2x PBS + 1 M NaCl, and 2x 50 mM ammonium bicarbonate
(§27) (ABC) + 2 M urea. The beads were then transferred to a 1.5 mL microcentrifuge tube using 2x250
(§28) µL 100 mM Tris pH 8.0 + 4 M Guanidium hydrochloride (final volume 500 µL).

[2] = biological target: proteins of HEK293T cells transiently overexpressing caspase-6 (Homo sapiens, UniProt Q12905); settings: Comp; protein ILF2 Q12905
Chain of proteins of HEK293T cells transiently overexpressing caspase-6 (Homo sapiens, UniProt Q12905) (Q12905 whole entry): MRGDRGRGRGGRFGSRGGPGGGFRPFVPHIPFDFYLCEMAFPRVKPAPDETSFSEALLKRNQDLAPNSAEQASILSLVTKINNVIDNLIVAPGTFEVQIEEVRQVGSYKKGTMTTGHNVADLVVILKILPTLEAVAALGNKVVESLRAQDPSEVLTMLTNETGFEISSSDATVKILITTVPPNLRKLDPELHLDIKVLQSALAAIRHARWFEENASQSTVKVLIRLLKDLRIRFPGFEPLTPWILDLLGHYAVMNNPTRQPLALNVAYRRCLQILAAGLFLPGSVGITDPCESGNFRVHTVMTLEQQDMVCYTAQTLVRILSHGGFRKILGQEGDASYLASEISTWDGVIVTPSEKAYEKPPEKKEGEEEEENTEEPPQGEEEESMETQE
Method: as §1, §2, §3, §4, §5, §6, §7, §8, §9, §10, §11, §12, §13, §14, §15, §16, §17, §18, §19, §20, §21, §22, §23, §24, §25, §26, §27, §28

[3] = biological target: proteins of HEK293T cells transiently overexpressing caspase-6 (Homo sapiens, UniProt Q13347)
Chain of proteins of HEK293T cells transiently overexpressing caspase-6 (Homo sapiens, UniProt Q13347) (Q13347 whole entry): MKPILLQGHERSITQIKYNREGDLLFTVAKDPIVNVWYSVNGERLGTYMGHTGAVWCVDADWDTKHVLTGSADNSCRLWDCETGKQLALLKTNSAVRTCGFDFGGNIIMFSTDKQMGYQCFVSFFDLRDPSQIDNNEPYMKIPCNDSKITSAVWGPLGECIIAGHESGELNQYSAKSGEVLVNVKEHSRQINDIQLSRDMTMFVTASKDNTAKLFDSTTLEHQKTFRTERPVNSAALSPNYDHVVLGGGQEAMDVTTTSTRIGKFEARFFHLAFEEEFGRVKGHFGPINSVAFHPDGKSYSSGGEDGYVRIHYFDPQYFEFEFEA
Method: as §1, §2, §3, §4, §5, §6, §7, §8, §9, §10, §11, §12, §13, §14, §15, §16, §17, §18, §19, §20, §21, §22, §23, §24, §25, §26, §27, §28

[4] = biological target: proteins of HEK293T cells transiently overexpressing caspase-6 (Homo sapiens, UniProt P62888); settings: Comp; protein RPL30 P62888
Method: as §1, §2, §3, §4, §5, §6, §7, §8, §9, §10, §11, §12, §13, §14, §15, §16, §17, §18, §19, §20, §21, §22, §23, §24, §25, §26, §27, §28

[5] = biological target: T1, proteins of HEK293T cells transiently overexpressing caspase-6 (Homo sapiens, UniProt O75844)
T1 sequence (O75844 1-475): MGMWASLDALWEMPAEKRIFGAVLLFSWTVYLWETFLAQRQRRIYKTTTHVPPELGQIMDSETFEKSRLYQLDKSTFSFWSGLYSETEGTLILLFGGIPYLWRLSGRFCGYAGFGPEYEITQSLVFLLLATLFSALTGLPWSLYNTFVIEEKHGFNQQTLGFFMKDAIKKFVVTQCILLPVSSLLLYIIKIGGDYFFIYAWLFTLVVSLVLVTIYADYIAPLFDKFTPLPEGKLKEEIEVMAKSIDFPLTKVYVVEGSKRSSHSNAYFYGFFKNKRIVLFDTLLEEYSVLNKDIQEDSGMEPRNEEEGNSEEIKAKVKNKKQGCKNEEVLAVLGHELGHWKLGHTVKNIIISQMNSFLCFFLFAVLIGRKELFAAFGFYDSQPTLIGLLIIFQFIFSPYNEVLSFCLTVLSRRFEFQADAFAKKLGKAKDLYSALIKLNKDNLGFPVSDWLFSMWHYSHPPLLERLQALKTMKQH
Method: as §1, §2, §3, §4, §5, §6, §7, §8, §9, §10, §11, §12, §13, §14, §15, §16, §17, §18, §19, §20, §21, §22, §23, §24, §25, §26, §27, §28

[6] = biological target: proteins of HEK293T cells transiently overexpressing caspase-6 (Homo sapiens, UniProt P42704); settings: Comp; protein LRPPRC P42704
Method: as §1, §2, §3, §4, §5, §6, §7, §8, §9, §10, §11, §12, §13, §14, §15, §16, §17, §18, §19, §20, §21, §22, §23, §24, §25, §26, §27, §28

[7] = biological target: proteins of HEK293T cells transiently overexpressing caspase-6 (Homo sapiens, UniProt P36578); settings: Comp; protein RPL4 P36578
Method: as §1, §2, §3, §4, §5, §6, §7, §8, §9, §10, §11, §12, §13, §14, §15, §16, §17, §18, §19, §20, §21, §22, §23, §24, §25, §26, §27, §28

[8] = biological target: T2, proteins of HEK293T cells transiently overexpressing caspase-6 (Homo sapiens, UniProt P54136)
T2 sequence (P54136 1-660): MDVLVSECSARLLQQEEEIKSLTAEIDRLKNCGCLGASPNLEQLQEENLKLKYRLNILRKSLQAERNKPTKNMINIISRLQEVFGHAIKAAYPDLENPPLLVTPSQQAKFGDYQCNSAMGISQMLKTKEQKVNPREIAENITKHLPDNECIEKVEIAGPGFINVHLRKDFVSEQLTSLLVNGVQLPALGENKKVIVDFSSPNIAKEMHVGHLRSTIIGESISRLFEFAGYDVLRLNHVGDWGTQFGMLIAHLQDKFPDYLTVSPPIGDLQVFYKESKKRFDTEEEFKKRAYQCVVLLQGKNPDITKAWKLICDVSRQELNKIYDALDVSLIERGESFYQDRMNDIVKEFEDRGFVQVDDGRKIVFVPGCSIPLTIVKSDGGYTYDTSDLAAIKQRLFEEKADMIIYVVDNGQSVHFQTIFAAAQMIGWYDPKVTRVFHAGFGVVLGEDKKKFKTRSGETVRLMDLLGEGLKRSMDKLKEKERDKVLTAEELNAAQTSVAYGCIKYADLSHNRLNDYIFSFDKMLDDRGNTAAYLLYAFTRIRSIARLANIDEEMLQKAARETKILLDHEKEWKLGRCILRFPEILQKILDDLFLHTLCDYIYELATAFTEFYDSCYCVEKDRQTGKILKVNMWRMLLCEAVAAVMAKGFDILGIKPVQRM
Method: as §1, §2, §3, §4, §5, §6, §7, §8, §9, §10, §11, §12, §13, §14, §15, §16, §17, §18, §19, §20, §21, §22, §23, §24, §25, §26, §27, §28

[9] = biological target: proteins of HEK293T cells transiently overexpressing caspase-6 (Homo sapiens, UniProt P31689)
Chain of proteins of HEK293T cells transiently overexpressing caspase-6 (Homo sapiens, UniProt P31689) (P31689 whole entry): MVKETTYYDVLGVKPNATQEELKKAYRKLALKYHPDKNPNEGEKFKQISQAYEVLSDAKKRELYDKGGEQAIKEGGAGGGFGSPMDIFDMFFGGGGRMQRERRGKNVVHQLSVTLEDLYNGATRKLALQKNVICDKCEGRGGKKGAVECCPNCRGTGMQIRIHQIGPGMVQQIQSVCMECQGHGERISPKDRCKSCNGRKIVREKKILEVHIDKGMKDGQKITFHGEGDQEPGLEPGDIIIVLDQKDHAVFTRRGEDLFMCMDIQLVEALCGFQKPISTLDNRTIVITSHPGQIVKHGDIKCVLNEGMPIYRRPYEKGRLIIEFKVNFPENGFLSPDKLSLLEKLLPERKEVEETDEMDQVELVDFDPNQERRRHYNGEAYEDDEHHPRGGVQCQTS
Method: as §1, §2, §3, §4, §5, §6, §7, §8, §9, §10, §11, §12, §13, §14, §15, §16, §17, §18, §19, §20, §21, §22, §23, §24, §25, §26, §27, §28

[10] = biological target: T3, proteins of HEK293T cells transiently overexpressing caspase-6 (Homo sapiens, UniProt P40926); settings: Comp; protein MDH2 P40926
T3 sequence (P40926 25-338): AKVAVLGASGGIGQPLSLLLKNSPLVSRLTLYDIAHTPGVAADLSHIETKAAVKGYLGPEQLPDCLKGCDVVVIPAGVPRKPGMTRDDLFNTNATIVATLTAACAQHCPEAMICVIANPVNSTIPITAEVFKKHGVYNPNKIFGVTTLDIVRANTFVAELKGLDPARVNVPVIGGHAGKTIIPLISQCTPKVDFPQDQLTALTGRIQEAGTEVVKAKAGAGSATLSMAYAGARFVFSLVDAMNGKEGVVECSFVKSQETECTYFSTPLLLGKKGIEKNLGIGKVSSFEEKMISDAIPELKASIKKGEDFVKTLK
Method: as §1, §2, §3, §4, §5, §6, §7, §8, §9, §10, §11, §12, §13, §14, §15, §16, §17, §18, §19, §20, §21, §22, §23, §24, §25, §26, §27, §28

[11] = biological target: proteins of HEK293T cells transiently overexpressing caspase-6 (Homo sapiens, UniProt P17987); settings: Comp; protein TCP1 P17987
Chain of proteins of HEK293T cells transiently overexpressing caspase-6 (Homo sapiens, UniProt P17987) (P17987 whole entry): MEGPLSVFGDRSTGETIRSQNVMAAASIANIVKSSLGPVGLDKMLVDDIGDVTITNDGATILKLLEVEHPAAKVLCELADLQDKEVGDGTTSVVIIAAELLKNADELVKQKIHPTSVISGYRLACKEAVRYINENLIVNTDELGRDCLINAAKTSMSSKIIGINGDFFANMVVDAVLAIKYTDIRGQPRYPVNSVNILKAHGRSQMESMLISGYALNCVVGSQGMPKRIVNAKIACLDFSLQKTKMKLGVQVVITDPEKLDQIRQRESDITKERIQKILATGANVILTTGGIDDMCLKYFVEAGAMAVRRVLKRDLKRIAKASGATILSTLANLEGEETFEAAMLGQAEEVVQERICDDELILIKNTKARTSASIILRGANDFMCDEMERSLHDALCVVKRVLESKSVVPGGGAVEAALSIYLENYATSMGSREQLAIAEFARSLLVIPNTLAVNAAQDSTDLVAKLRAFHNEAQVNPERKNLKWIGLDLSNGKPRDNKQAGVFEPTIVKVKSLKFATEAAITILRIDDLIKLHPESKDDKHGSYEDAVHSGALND
Method: as §1, §2, §3, §4, §5, §6, §7, §8, §9, §10, §11, §12, §13, §14, §15, §16, §17, §18, §19, §20, §21, §22, §23, §24, §25, §26, §27, §28

[12] = protein GPI (P06744), Exp Comp, analysis C6, p 0.0078, 8 peptides
[13] = protein EIF3I (Q13347), Exp Comp, analysis C6, p 0.0625, 5 peptides
[14] = protein ZMPSTE24 (O75844), Exp Comp, analysis C6, p 0.5000, 2 peptides
[15] = protein RARS (P54136), Exp Comp, analysis C6, p 0.0312, 7 peptides
[16] = protein DNAJA1 (P31689), Exp Comp, analysis C6, p 0.0625, 5 peptides

Work on `C=CS(=O)(=O)N1C[C@H](C(=O)Nc2ccc(OC(F)(F)F)cc2)C[C@@H](c2ccccc2)C1` [3a] yielded an enrich.exp.med ([1]; Comp, protein GPI P06744) of 1.157, an enrich.exp.med.lin [1, 12] of 2.229 and an enrich.exp.med.log2 [1, 12] of 1.157. The enrich.exp.med [2] was 0.7326, the enrich.exp.med ([3]; Comp, protein EIF3I Q13347) was 1.022 and the enrich.exp.med.lin [3, 13] was 2.03. The enrich.exp.med.log2 [3, 13] was 1.022, the enrich.exp.med [4] was 0.6036 and the enrich.exp.med ([5]; Comp, protein ZMPSTE24 O75844) was 1.01. For the same compound, the enrich.exp.med.lin [5, 14] was 2.0144, the enrich.exp.med.log2 [5, 14] was 1.01 and the enrich.exp.med [6] was 0.6677. It also gave an enrich.exp.med [7] of 0.5872, an enrich.exp.med ([8]; Comp, protein RARS P54136) of 1.077 and an enrich.exp.med.lin [8, 15] of 2.11. The enrich.exp.med.log2 [8, 15] was 1.077, the enrich.exp.med ([9]; Comp, protein DNAJA1 P31689) was 1.02 and the enrich.exp.med.lin [9, 16] was 2.028. For the same compound, the enrich.exp.med.log2 [9, 16] was 1.02, the enrich.exp.med [10] was 0.5931 and the enrich.exp.med [11] was 0.7901.
